Results from patent US20160222021A1, “ARYL ETHER-BASE KINASE INHIBITORS” (BRISTOL-MYERS SQUIBB COMPANY, priority 2013, published 2016).

molecular target: T1, GST-Xa-hAAK1 (Homo sapiens, UniProt Q2M2I8); assay: AAK1 Kinase Assay; type: biochemical; conditions: ATP 22 μM; IC50 ranges
T1 construct: made in house
Experimental: The assays were performed in U-bottom 384-well plates. The final assay volume was 30 μl prepared from 15 μl additions of enzyme and substrates (fluoresceinated peptide (5-FAM)-Aha-[…]-NH2 and ATP) and test compounds in assay buffer (10 mM Tris-HCL pH 7.4, 10 mM MgCl2, 0.01% Tween-20 and 1.0 mM DTT). The reactions were initiated by the combination of bacterially expressed, GST-Xa-hAAK1 with substrates and test compounds. The reactions were incubated at room temperature for 3 hours and terminated by adding 60 μl of 35 mM EDTA buffer to each sample. The reactions were analyzed on the Caliper LabChip 3000 (Caliper, Hopkinton, Mass.) by electrophoretic separation of the fluorescent substrate and phosphorylated product. […] The final concentration of reagents in the assays are ATP, 22 μM; (5-FAM)-Aha-[…]-NH2, 1.5 μM; GST-Xa-hAAK1, 3.5 nM; and DMSO, 1.6%. Dose response curves were generated to determine the concentration required inhibiting 50% of kinase activity (IC50). Compounds were dissolved at 10 mM in dimethylsulfoxide (DMSO) and evaluated at eleven concentrations. IC50 values were derived by non-linear regression analysis.

T1 sequence (Q2M2I8 whole entry): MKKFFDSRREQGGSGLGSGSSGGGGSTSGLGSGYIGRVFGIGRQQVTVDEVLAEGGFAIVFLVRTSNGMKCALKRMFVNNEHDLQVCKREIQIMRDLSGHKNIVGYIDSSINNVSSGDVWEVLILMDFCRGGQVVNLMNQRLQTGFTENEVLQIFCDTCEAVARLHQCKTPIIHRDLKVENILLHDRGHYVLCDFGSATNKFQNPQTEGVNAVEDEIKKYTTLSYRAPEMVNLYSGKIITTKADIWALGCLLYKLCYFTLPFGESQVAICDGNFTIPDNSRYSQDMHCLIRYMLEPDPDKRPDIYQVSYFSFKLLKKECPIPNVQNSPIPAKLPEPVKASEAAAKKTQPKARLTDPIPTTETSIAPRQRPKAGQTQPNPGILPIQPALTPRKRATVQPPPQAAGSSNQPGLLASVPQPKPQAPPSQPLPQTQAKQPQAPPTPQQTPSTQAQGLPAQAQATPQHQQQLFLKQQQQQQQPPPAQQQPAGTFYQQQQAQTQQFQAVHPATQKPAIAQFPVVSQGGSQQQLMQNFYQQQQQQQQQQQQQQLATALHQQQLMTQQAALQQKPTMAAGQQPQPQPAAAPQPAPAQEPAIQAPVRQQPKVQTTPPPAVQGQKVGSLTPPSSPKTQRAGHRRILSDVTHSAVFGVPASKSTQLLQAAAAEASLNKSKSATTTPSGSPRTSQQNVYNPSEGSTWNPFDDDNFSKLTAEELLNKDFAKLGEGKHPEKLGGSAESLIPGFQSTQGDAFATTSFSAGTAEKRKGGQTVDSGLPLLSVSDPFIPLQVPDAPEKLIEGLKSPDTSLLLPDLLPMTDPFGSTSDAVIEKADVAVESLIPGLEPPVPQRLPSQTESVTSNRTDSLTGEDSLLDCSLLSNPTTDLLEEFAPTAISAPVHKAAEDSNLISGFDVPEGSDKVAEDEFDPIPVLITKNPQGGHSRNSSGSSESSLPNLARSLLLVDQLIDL

Row | Compound | IC50 [nM]
1 | CC(C)CC(C)(N)COc1ccc2c(c1)OCc1cnc(N)cc1-2 (racemic) [Example 68, 8-((2-amino-2,4-dimethylpentyl)oxy)-5H-chromeno[3,4-c]pyridin-2-amine] | 1 to 10
2 | COC(=O)Nc1cc2c(cn1)COc1c-2ccc(OCC(C)(N)CC(C)C)c1OC (racemic) [Example 69, methyl (8-((2-amino-2,4-dimethylpentyl)oxy)-7-methoxy-5H-chromeno[3,4-c]pyridin-2-yl)carbamate] | < 1
3 | [2H]C([2H])(Oc1ccc2c(c1)OCc1cnc(NC(C)=O)cc1-2)C(C)(N)CC(C)C (racemic) [Example 78, N-(8-((2-amino-1,1-deutero-2,4-dimethylpentyl)oxy)-5H-chromeno[3,4-c]pyridin-2-yl)acetamide] | 1 to 10
4 | COC(=O)Nc1cc2c(cn1)COc1c-2ccc(OCC(C)(N)CC(C)C)c1C#N (racemic) [Example 79, methyl (8-((2-amino-2,4-dimethylpentyl)oxy)-7-cyano-5H-chromeno[3,4-c]pyridin-2-yl)carbamate] | < 1
5 | [2H]C([2H])(Oc1ccc2c(c1C#N)OCc1cnc(NC(=O)OC)cc1-2)C(C)(N)CC(C)C (racemic) [Example 94, methyl (8-((2-amino-1,1-deutero-2,4-dimethylpentyl)oxy)-7-cyano-5H-chromeno[3,4-c]pyridin-2-yl)carbamate] | < 1
6 | [2H]C([2H])(Oc1ccc2c(c1)OCc1cnc(NC(=O)OCC)cc1-2)C(C)(N)CC(C)C (racemic) [Example 96, ethyl (8-((2-amino-1,1-deutero-2,4-dimethylpentyl)oxy)-5H-chromeno[3,4-c]pyridin-2-yl)carbamate] | 1 to 10
7 | CC(C)C[C@H](N)COc1ccc2c(c1)OC(C1CC1)c1cnccc1-2 (single isomer, unassigned) [Example 8a] | 100 to 1200
8 | CC(C)C[C@@H](N)COc1ccc2c(c1)OC(C1CC1)c1cnccc1-2 (single isomer, unassigned) [Example 9a] | 100 to 1200
9 | CC(C)C[C@@H](N)COc1ccc2c(c1)OC(C1CC1)c1cnccc1-2 (single isomer, unassigned) [Example 9b] | 100 to 1200
10 | CC(C)C[C@H](N)COc1cc2c(cc1Cl)-c1ccncc1[C@H](C(F)(F)F)O2 (single isomer, unassigned) [Example 27a] | 1 to 10
11 | CC(C)C[C@H](N)COc1ccc2c(c1)OC(C(F)(F)F)c1cnccc1-2 (single isomer, unassigned; diastereomer 2) [Example 53] | 10 to 100
12 | N[C@@H](COc1ccc2c(c1)OCc1cnccc1-2)Cc1ccccc1 [Example 2, (R)-1-(5H-chromeno[3,4-c]pyridin-8-yloxy)-3-phenylpropan-2-amine] | 100 to 1200
13 | CC[C@@H](N)COc1ccc2c(c1)OCc1cnccc1-2 [Example 3, (R)-1-(5H-chromeno[3,4-c]pyridin-8-yloxy)butan-2-amine] | 100 to 1200
14 | CC(C)C[C@@H](N)COc1ccc2c(c1)OC(C1CC1)c1cnccc1-2 (some centres unmarked) [Example 9] | 100 to 1200
15 | CC(C)C[C@H](N)COc1ccc2c(c1)OC1(COC1)c1cnccc1-2 [Example 19, (S)-4-methyl-1-(spiro[chromeno[3,4-c]pyridine-5,3′-oxetan]-8-yloxy)pentan-2-amine] | 100 to 1200
16 | CC(C)C[C@H](N)COc1cc2oc(=O)c3cnccc3c2cc1Br [Example 25, (S)-8-(2-amino-4-methylpentyloxy)-9-bromo-5H-chromeno[3,4-c]pyridin-5-one] | 1 to 10
17 | Cc1cc2c(cn1)COc1cc(OC[C@@H](N)CC(C)C)ccc1-2 [Example 39, (S)-4-methyl-1-((2-methyl-5H-chromeno[3,4-c]pyridin-8-yl)oxy)pentan-2-amine] | 100 to 1200
18 | CC(=O)Nc1nccc2c1C(C)Oc1cc(OC[C@@H](N)CC(C)C)ccc1-2 (stereo partly drawn) [Example 47, N-(8-(((S)-2-amino-4-methylpentyl)oxy)-5-methyl-5H-chromeno[3,4-c]pyridin-4-yl)acetamide] | 100 to 1200
19 | CC(C)C[C@H](N)COc1ccc2c(c1)OC(C(F)(F)F)c1cnccc1-2 (stereo partly drawn) [Example 49, (2S)-4-methyl-1-((5-(trifluoromethyl)-5H-chromeno[3,4-c]pyridin-8-yl)oxy)pentan-2-amine] | 10 to 100
20 | CC(C)C[C@H](N)COc1ccc2c(c1)OC(C(C)C)c1cnccc1-2 (stereo partly drawn) [Example 51, (2S)-1-((5-isopropyl-5H-chromeno[3,4-c]pyridin-8-yl)oxy)-4-methylpentan-2-amine] | 10 to 100
21 | CC(C)C[C@H](N)COc1ccc2c(c1)OC(C(C)C)c1cnccc1-2 (stereo partly drawn) [Example 55, (2S)-1-((5-isopropyl-5H-chromeno[3,4-c]pyridin-8-yl)oxy)-4-methylpentan-2-amine] | 10 to 100
22 | CCNc1cc2c(cn1)COc1cc(OC[C@@H](N)CC(C)C)ccc1-2 [Example 58, (S)-8-((2-amino-4-methylpentyl)oxy)-N-ethyl-5H-chromeno[3,4-c]pyridin-2-amine] | 10 to 100
23 | CC(C)C[C@H](N)COc1ccc2c(c1)OCc1cnc(NC(=O)C(C)C)cc1-2 [Example 61, (S)—N-(8-((2-amino-4-methylpentyl)oxy)-5H-chromeno[3,4-c]pyridin-2-yl)isobutyramide] | 10 to 100
24 | CC(=O)Nc1cc2c(cn1)COc1cc(OC[C@@H](N)CC(C)C)cc(F)c1-2 [Example 62, (S)—N-(8-((2-amino-4-methylpentyl)oxy)-10-fluoro-5H-chromeno[3,4-c]pyridin-2-yl)acetamide] | 1 to 10
25 | CC(C)C[C@H](N)COc1cc2c(cc1Cl)-c1cc(N)ncc1CO2 [Example 71, (S)-8-((2-amino-4-methylpentyl)oxy)-9-chloro-5H-chromeno[3,4-c]pyridin-2-amine] | 1 to 10
26 | CC(C)C[C@H](N)COc1ccc2c(c1)OCc1cnc(NC(=O)c3cc(F)cc(F)c3)cc1-2 [Example 72, (S)—N-(8-((2-amino-4-methylpentyl)oxy)-5H-chromeno[3,4-c]pyridin-2-yl)-3,5-difluorobenzamide] | 100 to 1200

same assay, conditions: ATP 22 μM; numeric values

Row | Compound | IC50 [nM]
27 | [2H]C([2H])(Oc1ccc2c(c1)OCc1cnc(NC(=O)OC)cc1-2)C(C)(N)CC(C)C (racemic) [Example 75, methyl (8-((2-amino-1,1-deutero-2,4-dimethylpentyl)oxy)-5H-chromeno[3,4-c]pyridin-2-yl)carbamate] | 2.3
28 | CC(=O)Nc1cc2c(cn1)COc1cc(OC[C@@](C)(N)CC(C)C)ccc1-2 [Example 45, (S)—N-(8-((2-amino-2,4-dimethylpentyl)oxy)-5H-chromeno[3,4-c]pyridin-2-yl)acetamide] | 0.87
29 | CC(=O)Nc1nccc2c1C(C1CC1)Oc1cc(OC[C@@H](N)CC(C)C)ccc1-2 (stereo partly drawn) [Example 48, N-(8-(((S)-2-amino-4-methylpentyl)oxy)-5-cyclopropyl-5H-chromeno[3,4-c]pyridin-4-yl)acetamide] | 1200
30 | CC(C)C[C@H](N)COc1ccc2c(c1)OC(C1CC1)c1c-2ccnc1N (stereo partly drawn) [Example 50, 8-(((S)-2-amino-4-methylpentyl)oxy)-5-cyclopropyl-5H-chromeno[3,4-c]pyridin-4-amine] | 12
31 | CNc1nccc2c1COc1cc(OC[C@@H](N)CC(C)C)ccc1-2 [Example 54, (S)-8-((2-amino-4-methylpentyl)oxy)-N-methyl-5H-chromeno[3,4-c]pyridin-4-amine] | 305
32 | CC1Oc2cc(OC[C@@H](N)CC3CC3)ccc2-c2ccncc21 (stereo partly drawn) [Example 56, (2S)-1-cyclopropyl-3-((5-methyl-5H-chromeno[3,4-c]pyridin-8-yl)oxy)propan-2-amine] | 21
